Measured values taken from article PMC10205683, “Structure Based Discovery of Inhibitors of CYP125 and CYP142 from Mycobacterium tuberculosis” (Chemistry (Weinheim an Der Bergstrasse, Germany), 2023).
Converted amounts (≈) assume the structure as drawn. Like-named read-outs stand apart in the source and are kept apart here.

Assays:
[1] = target: T1, CYP125 (Mycobacterium tuberculosis, UniProt P9WPP1); assay: biochemical; format: binding; conditions: UV-Vis spectroscopy
T1 construct: encoding residues 18-433; twin-strep hexahistidine tag (TEV-cleavable) (N, cleaved yes); made in house; host or cells: E. coli C41(DE3), pET21a
T1 sequence (P9WPP1 18-433 limits assumed): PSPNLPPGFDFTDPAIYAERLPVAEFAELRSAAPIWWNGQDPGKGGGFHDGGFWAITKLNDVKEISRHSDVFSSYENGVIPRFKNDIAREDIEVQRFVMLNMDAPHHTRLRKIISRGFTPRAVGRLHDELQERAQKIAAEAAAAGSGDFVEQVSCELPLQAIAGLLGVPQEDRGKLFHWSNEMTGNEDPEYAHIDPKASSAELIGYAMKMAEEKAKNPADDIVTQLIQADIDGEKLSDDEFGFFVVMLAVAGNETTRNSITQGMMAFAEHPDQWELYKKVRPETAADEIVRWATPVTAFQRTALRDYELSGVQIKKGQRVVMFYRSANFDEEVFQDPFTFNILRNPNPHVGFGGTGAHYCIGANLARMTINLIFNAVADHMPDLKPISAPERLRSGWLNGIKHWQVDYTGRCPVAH

[2] = target: T2, CYP142 (Mycobacterium tuberculosis, UniProt P9WPL5); assay: biochemical; conditions: UV-Vis spectroscopy
T2 sequence (P9WPL5 2-398): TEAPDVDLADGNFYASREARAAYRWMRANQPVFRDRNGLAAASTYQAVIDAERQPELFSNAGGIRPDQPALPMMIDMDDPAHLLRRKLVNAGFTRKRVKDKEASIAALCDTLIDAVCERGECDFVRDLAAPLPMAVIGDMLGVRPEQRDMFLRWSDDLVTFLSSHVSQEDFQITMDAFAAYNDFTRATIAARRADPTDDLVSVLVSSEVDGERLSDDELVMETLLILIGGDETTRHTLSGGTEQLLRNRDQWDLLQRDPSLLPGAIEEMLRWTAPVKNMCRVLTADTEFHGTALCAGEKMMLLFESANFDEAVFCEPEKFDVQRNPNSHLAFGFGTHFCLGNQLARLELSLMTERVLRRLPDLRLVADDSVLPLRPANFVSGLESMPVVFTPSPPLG

[3] = tested on: Mtb strain 028 K111; assay: microbe, parasite or virus in culture; format: cell-based; conditions: Mycobacterium tuberculosis
[4] = tested on: Mtb strain CDC1551; assay: MIC determination against Mtb CDC1551 (clinical strain); format: cell-based; conditions: Mycobacterium tuberculosis
[5] = tested on: Mtb strain K18b01MR; assay: microbe, parasite or virus in culture; format: cell-based; conditions: Mycobacterium tuberculosis
[6] = tested on: Mtb strain KB019; assay: microbe, parasite or virus in culture; format: cell-based; conditions: Mycobacterium tuberculosis
[7] = tested on: Mtb strain NIH_G269DR; assay: microbe, parasite or virus in culture; format: cell-based; conditions: Mycobacterium tuberculosis
[8] = tested on: Mtb strain K03b00DS; assay: MIC determination against Mtb K03b00DS (DS); format: cell-based; conditions: Mycobacterium tuberculosis
[9] = tested on: Mtb strain 53 K113; assay: microbe, parasite or virus in culture; format: cell-based; conditions: Mycobacterium tuberculosis
[10] = tested on: Mtb H37Rv (ATCC 27294); assay: MIC determination against Mtb H37Rv; format: cell-based, Mycobacterium tuberculosis
[11] = target: T2, CYP142; conditions: read-out: KD (CYP142); UV-Vis spectroscopy
[12] = Mycobacterium tuberculosis, 168 h
[13] = Mycobacterium tuberculosis, 336 h
[14] = Mycobacterium tuberculosis, 168 h, Table S1, H37Rv, […], 1 Week

Compound NCc1ccc(-c2cnns2)cc1 [Compound 1] has a Kd [1] of 57700 nM and a Kd [2] of 610 nM.
Compound COc1ccc(-c2ccncc2)cc1 [Compound 2] has a Kd [1] of 58500 ± 3800 nM and a Kd [2] of 1600 ± 100 nM.
COC(=O)c1cccc(-c2ccncc2)c1 [Compound 3] was tested, and the Kd [1] was 146000 nM and the Kd [2] was 1500 nM.
Compound CCOC(=O)c1cc2cc(-c3ccncc3)ccc2[nH]1 [Compound 4, ethyl 5‐(pyridin‐4‐yl)‐1H‐indole‐2‐carboxylate] has a Kd [1] of 3000 nM and a Kd [2] of 750 nM.
Work on CCOC(=O)c1cc2cc(-c3ccncc3)ccc2n1Cc1ccccc1 [Compound 5] yielded a Kd [1] of 650 ± 60 nM and a Kd [2] of 40 ± 10 nM.
For CCOC(=O)c1cc2cc(-c3ccncc3)ccc2n1C(=O)c1ccccc1 [Compound 6], the Kd [1] was 120 ± 40 nM and the Kd [2] was 420 ± 80 nM.
Work on CCOC(=O)c1cc2cc(-c3ccncc3)ccc2n1CC1CCCCC1 [Compound 7] yielded a Kd [1] of 310 ± 30 nM and a Kd [2] of 50 ± 10 nM.
With CCOC(=O)c1cc2cc(-c3ccncc3)ccc2n1CC1CCCC1 [Compound 8] the Kd [1] was 300 ± 60 nM and the Kd [2] was 60 ± 10 nM.
Compound CCOC(=O)c1cc2cc(-c3ccncc3)ccc2n1CC1CCC1 [Compound 9] has a Kd [1] of 1100 ± 200 nM and a Kd [2] of 90 ± 10 nM.
CCOC(=O)c1cc2cc(-c3ccncc3)ccc2n1CCC1CCNCC1 [Compound 10] showed a Kd [1] of 5000 ± 200 nM and a Kd [2] of 390 ± 60 nM.
Compound CCOC(=O)c1cc2cc(-c3ccncc3)ccc2n1CC1CCNCC1 [Compound 11] has a Kd [1] of 14800 ± 900 nM and a Kd [2] of 710 ± 90 nM.
CCOC(=O)c1cc2cc(-c3ccncc3)ccc2n1CCN1CCOCC1 [Compound 12] gave a Kd [1] of 2800 ± 100 nM and a Kd [2] of 1100 ± 100 nM.
NC(=O)c1cc2cc(-c3ccncc3)ccc2n1CC1CCCCC1 [Compound 13] gave a Kd [1] of 450 ± 40 nM and a Kd [2] of 30 ± 7 nM.
Compound c1cc(-c2ccc3c(ccn3CCN3CCNCC3)c2)ccn1 [Compound 14] has a Kd [1] of 271000 ± 13000 nM and a Kd [2] of 11100 ± 500 nM.
Work on NC(=O)c1cc2cc(-c3ccncc3)ccc2n1CCN1CCNCC1 [Compound 15] yielded a Kd [1] of 48800 ± 2300 nM and a Kd [2] of 2500 ± 200 nM.
Cc1noc(-c2cc3cc(-c4ccncc4)ccc3n2CCC2CCNCC2)n1 [Compound 16] was tested, and the Kd [1] was greater than 100000 nM, the MIC ([3]; 028K111, 168 h) was 6.25 µM (≈ 2.42 µg/mL) and the MIC ([3]; 028K111, 336 h) was 6.25 µM (≈ 2.42 µg/mL). The MIC ([4]; 168 h) was 6.25 µM (≈ 2.42 µg/mL), the MIC ([4]; 336 h) was 6.25 µM (≈ 2.42 µg/mL) and the MIC ([5]; 168 h) was 6.25 µM (≈ 2.42 µg/mL). It also gave an MIC ([5]; 336 h) of 6.25 µM (≈ 2.42 µg/mL), a Kd [2] of 390 ± 50 nM and an MIC ([6]; KB019, 168 h) of 9.4 µM (≈ 3.64 µg/mL). For the same compound, the MIC ([6]; KB019, 336 h) was 12.5 µM (≈ 4.84 µg/mL), the MIC ([7]; 168 h) was 6.25 µM (≈ 2.42 µg/mL) and the MIC ([7]; 336 h) was 9.4 µM (≈ 3.64 µg/mL). It also gave an MIC ([8]; 168 h) of 6.25 µM (≈ 2.42 µg/mL), an MIC ([8]; 336 h) of 6.25 µM (≈ 2.42 µg/mL) and an MIC ([9]; 53K113, 168 h) of 6.25 µM (≈ 2.42 µg/mL). The MIC ([9]; 53K113, 336 h) was 6.25 µM (≈ 2.42 µg/mL), the MIC [10, 12] was 4.7 µM (≈ 1.82 µg/mL) and the MIC [10, 13] was 12.5 µM (≈ 4.84 µg/mL).
Cc1cnc(-c2cc3cc(-c4ccncc4)ccc3n2CCC2CCNCC2)o1 [Compound 17] gave a Kd [1] of 5300 ± 200 nM, an MIC ([3]; 028K111, 168 h) of 6.25 µM (≈ 2.42 µg/mL) and an MIC ([3]; 028K111, 336 h) of 6.25 µM (≈ 2.42 µg/mL). For the same compound, the MIC ([4]; 168 h) was 6.25 µM (≈ 2.42 µg/mL), the MIC ([4]; 336 h) was 6.25 µM (≈ 2.42 µg/mL) and the MIC ([5]; 168 h) was 6.25 µM (≈ 2.42 µg/mL). For the same compound, the MIC ([5]; 336 h) was 6.25 µM (≈ 2.42 µg/mL), the Kd [2] was 790 ± 50 nM and the MIC ([6]; KB019, 168 h) was 12.5 µM (≈ 4.83 µg/mL). The MIC ([6]; KB019, 336 h) was 19 µM (≈ 7.34 µg/mL), the MIC ([7]; 168 h) was 6.25 µM (≈ 2.42 µg/mL) and the MIC ([7]; 336 h) was 6.25 µM (≈ 2.42 µg/mL). The MIC ([8]; 168 h) was 4.7 µM (≈ 1.82 µg/mL), the MIC ([8]; 336 h) was 4.7 µM (≈ 1.82 µg/mL) and the MIC ([9]; 53K113, 168 h) was 6.25 µM (≈ 2.42 µg/mL). For the same compound, the MIC ([9]; 53K113, 336 h) was 6.25 µM (≈ 2.42 µg/mL) and the MIC [10, 13] was 19 µM (≈ 7.34 µg/mL).
Cc1nnc(-c2cc3cc(-c4ccncc4)ccc3n2CCC2CCNCC2)o1 [Compound 18] was tested, and the Kd [1] was 10200 ± 100 nM, the MIC ([3]; 028K111, 168 h) was 50 µM (≈ 19.4 µg/mL) and the MIC ([3]; 028K111, 336 h) was greater than 50 µM. For the same compound, the MIC ([4]; 168 h) was 50 µM (≈ 19.4 µg/mL), the MIC ([4]; 336 h) was 50 µM (≈ 19.4 µg/mL) and the MIC ([5]; 168 h) was 50 µM (≈ 19.4 µg/mL). The MIC ([5]; 336 h) was 50 µM (≈ 19.4 µg/mL), the Kd [2] was 990 ± 100 nM and the MIC ([6]; KB019, 168 h) was greater than 50 µM. The MIC ([6]; KB019, 336 h) was 50 µM (≈ 19.4 µg/mL), the MIC ([7]; 168 h) was greater than 50 µM and the MIC ([7]; 336 h) was greater than 50 µM. The MIC ([8]; 168 h) was 50 µM (≈ 19.4 µg/mL), the MIC ([8]; 336 h) was 50 µM (≈ 19.4 µg/mL) and the MIC ([9]; 53K113, 168 h) was 50 µM (≈ 19.4 µg/mL). For the same compound, the MIC ([9]; 53K113, 336 h) was greater than 50 µM, the MIC [10, 14] was 25 µM (≈ 9.69 µg/mL) and the MIC [10, 13] was greater than 50 µM. For the same compound, the MIC ([10]; Mycobacterium tuberculosis, 336 h, Table S1, H37Rv, […], 2 Week) was 50 µM (≈ 19.4 µg/mL) and the MIC ([10]; Table S1, H37Rv, […], 1 Week) was greater than 50 µM.
With CCCC(=O)c1cc2cc(-c3ccncc3)ccc2n1CCC1CCNCC1 [Compound 19] the Kd [1] was 3600 ± 200 nM, the MIC ([3]; 028K111, 168 h) was 6.25 µM (≈ 2.35 µg/mL) and the MIC ([3]; 028K111, 336 h) was 6.25 µM (≈ 2.35 µg/mL). It also gave a Kd [11] of 230 ± 50 nM, an MIC ([4]; 168 h) of 6.25 µM (≈ 2.35 µg/mL) and an MIC ([4]; 336 h) of 6.25 µM (≈ 2.35 µg/mL). The MIC ([5]; 168 h) was 6.25 µM (≈ 2.35 µg/mL), the MIC ([5]; 336 h) was 6.25 µM (≈ 2.35 µg/mL) and the MIC ([6]; KB019, 168 h) was 12.5 µM (≈ 4.69 µg/mL). For the same compound, the MIC ([6]; KB019, 336 h) was 19 µM (≈ 7.13 µg/mL), the MIC ([7]; 168 h) was 6.25 µM (≈ 2.35 µg/mL) and the MIC ([7]; 336 h) was 6.25 µM (≈ 2.35 µg/mL). For the same compound, the MIC ([8]; 168 h) was 4.7 µM (≈ 1.76 µg/mL), the MIC ([8]; 336 h) was 4.7 µM (≈ 1.76 µg/mL) and the MIC ([9]; 53K113, 168 h) was 6.25 µM (≈ 2.35 µg/mL). The MIC ([9]; 53K113, 336 h) was 6.25 µM (≈ 2.35 µg/mL), the MIC [10] was 9.4 µM (≈ 3.53 µg/mL) and the MIC [10, 12] was 6.25 µM (≈ 2.35 µg/mL). The MIC [10, 14] was 9.4 µM (≈ 3.53 µg/mL), the MIC [10, 13] was 12.5 µM (≈ 4.69 µg/mL) and the MIC ([10]; Table S1, H37Rv, […], 1 Week) was 12.5 µM (≈ 4.69 µg/mL).
NNC(=O)c1ccncc1 [Isoniazid, reference compound] showed an MIC [10, 14] of 0.15 µM (≈ 0.0206 µg/mL).
